The record followed here is patent EP4562003B1, “NOVEL 7-SUBSTITUTED INDOLE SULFONAMIDE DERIVATIVES” (F. Hoffmann-La Roche AG, priority 2022, dated 2024).

SMILES strings stand for the structures.

human GPR17 short isoform, sequence (Q13304 29-367): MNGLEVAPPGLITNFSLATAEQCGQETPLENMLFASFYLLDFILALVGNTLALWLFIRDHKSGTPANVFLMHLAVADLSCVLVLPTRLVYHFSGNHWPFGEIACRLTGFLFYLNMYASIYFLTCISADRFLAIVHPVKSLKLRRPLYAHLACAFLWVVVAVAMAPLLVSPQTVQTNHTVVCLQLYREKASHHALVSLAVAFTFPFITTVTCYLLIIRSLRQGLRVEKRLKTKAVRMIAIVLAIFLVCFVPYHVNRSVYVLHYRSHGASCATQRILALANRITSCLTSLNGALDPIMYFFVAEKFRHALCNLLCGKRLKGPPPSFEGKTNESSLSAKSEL

The target in this assay is human GPR17 short isoform (Homo sapiens, UniProt Q13304). Kind of assay: GPR17 cAMP assay (TR-FRET cAMP quantification, antagonist mode). Format: cell-based. The settings on record: CHO-K1 cells stably expressing human GPR17 short isoform; EC80 of agonist MDL29,951; forskolin 15µM; IBMX 0.5mM; 30 minutes at room temperature; read-out: hGPR17 cAMP IC50. As to the method:
GPR17 cAMP Assay Protocol:
CHO-K1 cells stably expressing vector containing untagged human GPR17 short isoform (Roche) were cultured at 37°C / 5% CO2 in DMEM (Dulbecco's Modified Eagle Medium):F-12 (1:1) supplemented with 10% foetal bovine serum and 400 µg/ml Geneticin.
Changes in intracellular cyclic adenosine monophosphate (cAMP) levels were quantified using the Nano-TRF Detection Assay kit (Roche Diagnostics, Cat. No. 05214386001). This assay allows for direct cAMP quantification in a homogeneous solution. cAMP is detected based on time-resolved fluorescence energy transfer (TR-FRET) and competitive binding of ruthenylated cAMP and endogenous cAMP to an anti-cAMP monoclonal antibody labeled with AlexaFluor-700. The Ruthenium complex serves as the FRET donor and transfers energy to AlexaFluor-700. The FRET signal is inversely proportional to the cAMP concentration.
CHO-GPR17S cells were detached with Accutase and resuspended in assay buffer consisting of Hank's Balanced Salt Solution (HBSS), 10mM HEPES (4-(2-hydroxyethyl) piperazine-1-ethanesulfonic acid solution) and 0.1% bovine serum albumin (pH 7.4). The cells were seeded in black 384-well plates (Corning) at a density of 10'000 cells / 20µl assay buffer until the addition of compounds.
Test antagonist compounds were serially diluted in dimethyl sulfoxide (DMSO) and spotted in 384-well plates. The compounds were then diluted in HBSS buffer supplemented with an EC80 concentration of MDL29,951 (3-(2-Carboxy-4,6-dichloroindol-3-yl)propionic acid) (GPR17 agonist) plus 3-Isobutyl-1-methylxanthine (IBMX) (0.5mM final concentration) and added to the cells at room temperature. Forskolin (15µM final concentration) was added 5 minutes after the test compounds and the cells were incubated at room temperature for 30 minutes. The assay was stopped by adding cAMP detection mix (containing detergents for cell lysis) for 90 minutes at room temperature.
Cellular cAMP was measured using a Paradigm reader (Molecular Devices). The raw data was used to calculate the FRET signal based on the assay's P-factor as per cAMP kit instructions. The data was normalized to the maximal activity of a reference antagonist and dose response curves were fitted to the percent activity of the test compounds using a sigmoidal dose response model (Genedata Screener).
Results in the hGPR17 cAMP assay are provided for compounds of formula I in Table 1 Table 1: […]
For orientation: Cyclic AMP is a second messenger, typically raised through Gs and lowered through Gi signalling.
One may read the IC50 as the point on the concentration scale where inhibition reaches its midpoint. As to `COc1nc(NS(=O)(=O)c2c[nH]c3c(-c4ncccn4)c(Cl)ccc23)nc(OC)c1OCC(F)F` [Example 1, 6-chloro-N-[5-(2,2-difluoroethoxy)-4,6-dimethoxy-pyrimidin-2-yl]-7-(2-pyrimidyl)-1H-indole-3-sulfonamide], the IC50 is 0.048 µM. With `COc1nc(NS(=O)(=O)c2c[nH]c3c(-c4ncco4)c(Cl)ccc23)nc(OC)c1OCC(F)F` [Example 2, 6-chloro-N-[5-(2,2-difluoroethoxy)-4,6-dimethoxy-pyrimidin-2-yl]-7-oxazol-2-yl-1H-indole-3-sulfonamide] the figure was 0.098 µM.

Consider `COc1nc(NS(=O)(=O)c2c[nH]c3c(-c4ncccn4)c(Cl)ccc23)nc(OC)c1CC(F)F` [Example 3, 6-chloro-N-[5-(2,2-difluoroethyl)-4,6-dimethoxy-pyrimidin-2-yl]-7-(2-pyrimidyl)-1H-indole-3-sulfonamide], for which the half-inhibitory concentration (IC50) is 0.046 µM. Under `COc1nc(NS(=O)(=O)c2c[nH]c3c(-c4cccnn4)c(Cl)ccc23)nc(OC)c1OCC(F)F` [Example 4, 6-chloro-N-[5-(2,2-difluoroethoxy)-4,6-dimethoxy-pyrimidin-2-yl]-7-pyridazin-3-yl-1H-indole-3-sulfonamide] stands 0.044 µM; under `COc1nc(NS(=O)(=O)c2c[nH]c3c(-c4nccn4C)cccc23)nc(OC)c1CC(F)F` [Example 5, N-[5-(2,2-difluoroethyl)-4,6-dimethoxy-pyrimidin-2-yl]-7-(1-methylimidazol-2-yl)-1H-indole-3-sulfonamide], 0.026 µM; under `COc1nc(NS(=O)(=O)c2c[nH]c3c(-c4cccnn4)c(Cl)ccc23)nc(OC)c1CC(F)F` [Example 6, 6-chloro-N-[5-(2,2-difluoroethyl)-4,6-dimethoxy-pyrimidin-2-yl]-7-pyridazin-3-yl-1H-indole-3-sulfonamide], 0.042 µM. Under `COc1nc(NS(=O)(=O)c2c[nH]c3c(-c4nccn4C)cccc23)nc(OC)c1OCC(F)F` [Example 7, N-[5-(2,2-difluoroethoxy)-4,6-dimethoxy-pyrimidin-2-yl]-7-(1-methylimidazol-2-yl)-1H-indole-3-sulfonamide] stands 0.034 µM. With `COc1nc(NS(=O)(=O)c2c[nH]c3c(-c4nccn4C)c(Cl)ccc23)nc(OC)c1OCC(F)F` [Example 8, 6-chloro-N-[5-(2,2-difluoroethoxy)-4,6-dimethoxy-pyrimidin-2-yl]-7-(1-methylimidazol-2-yl)-1H-indole-3-sulfonamide] the figure was 0.039 µM; with `COc1nc(NS(=O)(=O)c2c[nH]c3c(-c4nccn4C)c(F)ccc23)nc(OC)c1OCC(F)F` [Example 9, N-[5-(2,2-difluoroethoxy)-4,6-dimethoxy-pyrimidin-2-yl]-6-fluoro-7-(1-methylimidazol-2-yl)-1H-indole-3-sulfonamide], 0.069 µM; with `COc1nc(NS(=O)(=O)c2c[nH]c3c(-c4nccn4C)c(F)ccc23)nc(OC)c1CC(F)F` [Example 10, N-[5-(2,2-difluoroethyl)-4,6-dimethoxy-pyrimidin-2-yl]-6-fluoro-7-(1-methylimidazol-2-yl)-1H-indole-3-sulfonamide], 0.03 µM. `COc1nc(NS(=O)(=O)c2c[nH]c3c(-c4cccnn4)cccc23)nc(OC)c1CC(F)F` [Example 11, N-[5-(2,2-difluoroethyl)-4,6-dimethoxy-pyrimidin-2-yl]-7-pyridazin-3-yl-1H-indole-3-sulfonamide]: the IC50 stood at 0.05 µM.

In the case of `COc1nc(NS(=O)(=O)c2c[nH]c3c(-c4cccnn4)cccc23)nc(OC)c1OCC(F)F` [Example 12, N-[5-(2,2-difluoroethoxy)-4,6-dimethoxy-pyrimidin-2-yl]-7-pyridazin-3-yl-1H-indole-3-sulfonamide], the IC50 was 0.085 µM.

Consider `COc1nc(NS(=O)(=O)c2c[nH]c3c(-c4nnccc4C)cccc23)nc(OC)c1OCC(F)F` [Example 13, N-[5-(2,2-difluoroethoxy)-4,6-dimethoxy-pyrimidin-2-yl]-7-(4-methylpyridazin-3-yl)-1H-indole-3-sulfonamide], for which the IC50 was found to be 0.057 µM. `COc1nc(NS(=O)(=O)c2c[nH]c3c(-c4cocn4)c(Cl)ccc23)nc(OC)c1OCC(F)F` [Example 14, 6-chloro-N-[5-(2,2-difluoroethoxy)-4,6-dimethoxy-pyrimidin-2-yl]-7-oxazol-4-yl-1H-indole-3-sulfonamide]: the IC50 amounted to 0.032 µM. Turning to `COc1nc(NS(=O)(=O)c2c[nH]c3c(-c4cnccn4)c(Cl)ccc23)nc(OC)c1CC(F)F` [Example 15, 6-chloro-N-[5-(2,2-difluoroethyl)-4,6-dimethoxy-pyrimidin-2-yl]-7-pyrazin-2-yl-1H-indole-3-sulfonamide], the IC50 came to 0.027 µM. For `COc1nc(NS(=O)(=O)c2c[nH]c3c(-c4cnccn4)c(Cl)ccc23)nc(OC)c1OCC(F)F` [Example 16, 6-chloro-N-[5-(2,2-difluoroethoxy)-4,6-dimethoxy-pyrimidin-2-yl]-7-pyrazin-2-yl-1H-indole-3-sulfonamide], the half-maximal inhibitory concentration (IC50) turned out to be 0.025 µM. For `COc1nc(NS(=O)(=O)c2c[nH]c3c(-c4ncccn4)cccc23)nc(OC)c1CC(F)F` [Example 17, N-[5-(2,2-difluoroethyl)-4,6-dimethoxy-pyrimidin-2-yl]-7-(2-pyrimidyl)-1H-indole-3-sulfonamide], the IC50 was 0.806 µM. Under `COc1nc(NS(=O)(=O)c2c[nH]c3c(-c4ccccn4)c(Cl)ccc23)nc(OC)c1CC(F)F` [Example 18, 6-chloro-N-[5-(2,2-difluoroethyl)-4,6-dimethoxy-pyrimidin-2-yl]-7-(2-pyridyl)-1H-indole-3-sulfonamide] stands 0.019 µM; under `COc1nc(NS(=O)(=O)c2c[nH]c3c(-c4ccccn4)c(Cl)ccc23)nc(OC)c1OCC(F)F` [Example 19, 6-chloro-N-[5-(2,2-difluoroethoxy)-4,6-dimethoxy-pyrimidin-2-yl]-7-(2-pyridyl)-1H-indole-3-sulfonamide], 0.018 µM; under `COc1nc(NS(=O)(=O)c2c[nH]c3c(-c4cnccn4)c(Cl)ccc23)nc(OC)c1OC(F)F` [Example 20, 6-chloro-N-[5-(difluoromethoxy)-4,6-dimethoxy-pyrimidin-2-yl]-7-pyrazin-2-yl-1H-indole-3-sulfonamide], 0.032 µM. For the compound `COc1nc(NS(=O)(=O)c2c[nH]c3c(-c4cnccn4)c(Cl)ccc23)nc(OC)c1OCCF` [Example 21, 6-chloro-N-[5-(2-fluoroethoxy)-4,6-dimethoxy-pyrimidin-2-yl]-7-pyrazin-2-yl-1H-indole-3-sulfonamide], the IC50 amounted to 0.04 µM. Regarding `COc1nc(NS(=O)(=O)c2c[nH]c3c(-c4ncccn4)c(Cl)ccc23)nc(OC)c1OCCF` [Example 22, 6-chloro-N-[5-(2-fluoroethoxy)-4,6-dimethoxy-pyrimidin-2-yl]-7-(2-pyrimidyl)-1H-indole-3-sulfonamide], the 50% inhibitory concentration (IC50) was 0.08 µM.

As for `COc1nc(NS(=O)(=O)c2c[nH]c3c(-c4ncccn4)c(Cl)ccc23)nc(OC)c1OC(F)F` [Example 23, 6-chloro-N-[5-(difluoromethoxy)-4,6-dimethoxy-pyrimidin-2-yl]-7-(2-pyrimidyl)-1H-indole-3-sulfonamide], the IC50 came to 0.05 µM. Under `COc1nc(NS(=O)(=O)c2c[nH]c3c(-c4ncccn4)c(Cl)ccc23)nc(OC)c1C1CC1C#N` (stereo not drawn) [Example 24, 6-chloro-N-[5-(2-cyanocyclopropyl)-4,6-dimethoxy-pyrimidin-2-yl]-7-(2-pyrimidyl)-1H-indole-3-sulfonamide] stands 0.061 µM.
